Our source for the IC50 values is patent US20130324526A1, “[1,2,4] TRIAZOLO [4,3-B] PYRIDAZINE COMPOUNDS AS INHIBITORS OF THE C-MET TYROSINE KINASE” (NOVARTIS AG, priority 2011, published 2013).

Assay [1] concerns the target c-MET receptor tyrosine kinase, GST-c-MET(969-1390) (Homo sapiens, UniProt P08581). Put plainly: EPK c-MET profiling assay (LanthaScreen TR-FRET kinase assay). Type of assay: biochemical. To be noted: 2 μM ATP, 0.3 nM enzyme, 60 minutes at room temperature; end point measurement, repeats can be about two times higher or lower; read-out: c-Met Biochem IC50. On the procedure:
The exemplified compounds of the present invention were assayed in an antibody based kinase phosphorylation assay as follows.
EPK c-MET Profiling Assay:
The EPK kinase assay for c-MET receptor tyrosine kinase was developed, using the purified recombinant GST-fusion protein, containing the cytoplasmic domain of the enzyme. GST-c-MET(969-1390) was purified by affinity chromatography.
The kinase assay is based on the LanthaScreen™ technology. LanthaScreen™ is the detection of Time-Resolved Fluorescence Resonance Energy Transfer (TR-FRET) using lanthanide chelates to measure interactions between various binding partners. In a TR-FRET kinase assay, a long-lifetime lanthanide donor species is conjugated to an antibody that specifically binds to a phosphorylated product of a kinase reaction that is labeled with a suitable acceptor fluorophore. This antibody-mediated interaction brings the lanthanide donor and the acceptor into proximity such that resonance energy transfer can take place, resulting in a detectable increase in the FRET signal.
The kinase reactions were performed in 384 well microtiter plates in a total reaction volume of 10.05 μL. The assay plates were prepared with 0.05 μL per well of test compound in the appropriate test concentration, as described under “preparation of compound dilutions”. The reactions were started by combining 5 μL of ATP solution with 5 μL of enzyme-substrate mix (consisting of kinase and substrate). The final concentrations in the kinase reactions were 25 mM Tris/HCl, 1 mM DTT, 0.025% Tween20, 10 μM sodium orthovanadate, 0.25% BSA, 0.5% DMSO, 10 mM MgCl2, 3 mM MnCl2, 2 μM ATP, 50 nM Fluorescein-PolyEAY, and 0.3 nM enzyme. The reactions were incubated for 60 minutes at room temperature and stopped by adding 5 μL of stop buffer (50 mM EDTA, 0.04% NP40, 20 mM Tris/HCl). Subsequently 5 μL of detection mix (50 mM Tris/HCl, 2 mM DTT, 0.05% Tween20, 20 μM sodium orthovanadate, 1% BSA, 1 nM Tb-PY20 antibody) were added to the stopped reactions. After 45 minutes incubation in dark at room temperature, the plates were measured in a Perkinelmer Envision fluorescence reader. The effect of compound on the enzymatic activity was in all assays obtained from the linear progress curves and normally determined from one reading (end point measurement).
These endpoint results should therefore only be seen as an indicator for the activity range, since repeated measurements can result in about two times higher or lower values.
(Time-resolved FRET reads energy transfer from a long-lived donor to a nearby acceptor.)

Assay [2] deals with GTL16 cells. Put plainly: GTL16 cell viability assay (CellTiter Glo). Type of assay: cell-based. Particulars: Homo sapiens, GTL 16, GTL16 gastric cancer cells, 24 hours, triplicates, read-out: GTL-16 Proliferation IC50. The protocol:
GTL16 cell line is derived from a gastric cancer patient. GTL16 expresses high level of c-Met receptor tyrosine kinase due to the gene amplification.
GTL16 cells were seeded in DMEM medium with 10% FBS and 1% Pene. & Strep. at 5000 cells/well/90 μL in 96 well plate and incubated overnight for attachment at 37° C. in 5% CO2 incubator. 10-fold serials dilutions of compounds were added to the cell as 10 μL/well. The final assay volume was 100 μl/well. The assay plates were incubated at 37° C. in 5% CO2 incubator for 24 hours. […] Briefly, the plates were cooled at room temperature for 10 mins and 100 μl of CellTiter Glo reagent was added into each well. Plates were shaken for 10 mins. The chemiluminescent light unit was read in Envision from Perkin Elmer. All the tests were run at triplicates. The IC50 was calculated using Spotfire software.

For assay [3], the target named is T1, human platelet PDE3 (Homo sapiens, UniProt Q14432).
T1 construct: Human platelet PDE3 (partially purified from human platelets); from tissue; host or cells: human platelets
The assay can be described thus: hPDE3 assay ([3H]cAMP scintillation proximity assay). Type of assay: biochemical. Particulars: human platelet PDE3, [3H]cAMP SPA, 30 min at room temperature. Background: Scintillation proximity formats need no separation of bound from free tracer.

T1 sequence (Q14432 whole entry): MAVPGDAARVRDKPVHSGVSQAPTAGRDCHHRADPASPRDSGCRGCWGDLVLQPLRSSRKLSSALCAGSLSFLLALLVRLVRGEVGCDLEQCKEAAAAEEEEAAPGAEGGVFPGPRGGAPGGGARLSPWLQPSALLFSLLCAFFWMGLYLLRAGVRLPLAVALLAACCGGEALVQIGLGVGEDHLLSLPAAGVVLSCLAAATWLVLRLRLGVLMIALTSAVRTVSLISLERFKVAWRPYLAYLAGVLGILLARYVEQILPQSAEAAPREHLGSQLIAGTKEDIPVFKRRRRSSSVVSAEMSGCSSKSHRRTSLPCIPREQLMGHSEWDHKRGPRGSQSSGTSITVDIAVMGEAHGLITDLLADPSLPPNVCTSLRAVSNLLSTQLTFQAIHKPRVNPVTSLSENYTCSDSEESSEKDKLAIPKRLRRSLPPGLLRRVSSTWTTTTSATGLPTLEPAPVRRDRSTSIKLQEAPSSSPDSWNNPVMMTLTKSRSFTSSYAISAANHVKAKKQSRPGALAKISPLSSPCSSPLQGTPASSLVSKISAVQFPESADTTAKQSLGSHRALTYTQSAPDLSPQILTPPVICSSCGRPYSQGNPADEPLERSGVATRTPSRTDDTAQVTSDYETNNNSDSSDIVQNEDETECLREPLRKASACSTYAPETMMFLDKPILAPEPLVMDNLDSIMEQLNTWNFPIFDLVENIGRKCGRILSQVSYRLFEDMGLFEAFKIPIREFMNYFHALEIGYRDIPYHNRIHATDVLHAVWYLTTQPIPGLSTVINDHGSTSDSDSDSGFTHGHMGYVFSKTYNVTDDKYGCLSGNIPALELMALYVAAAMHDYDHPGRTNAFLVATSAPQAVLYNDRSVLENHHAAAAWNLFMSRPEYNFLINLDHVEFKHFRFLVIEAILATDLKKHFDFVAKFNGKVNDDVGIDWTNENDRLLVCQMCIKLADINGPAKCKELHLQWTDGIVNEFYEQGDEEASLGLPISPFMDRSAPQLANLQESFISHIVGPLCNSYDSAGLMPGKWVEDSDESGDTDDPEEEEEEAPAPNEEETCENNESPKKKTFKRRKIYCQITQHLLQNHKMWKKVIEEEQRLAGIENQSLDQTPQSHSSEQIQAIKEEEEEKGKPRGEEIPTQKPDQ
c-MET receptor tyrosine kinase, GST-c-MET(969-1390), sequence (P08581 969-1390): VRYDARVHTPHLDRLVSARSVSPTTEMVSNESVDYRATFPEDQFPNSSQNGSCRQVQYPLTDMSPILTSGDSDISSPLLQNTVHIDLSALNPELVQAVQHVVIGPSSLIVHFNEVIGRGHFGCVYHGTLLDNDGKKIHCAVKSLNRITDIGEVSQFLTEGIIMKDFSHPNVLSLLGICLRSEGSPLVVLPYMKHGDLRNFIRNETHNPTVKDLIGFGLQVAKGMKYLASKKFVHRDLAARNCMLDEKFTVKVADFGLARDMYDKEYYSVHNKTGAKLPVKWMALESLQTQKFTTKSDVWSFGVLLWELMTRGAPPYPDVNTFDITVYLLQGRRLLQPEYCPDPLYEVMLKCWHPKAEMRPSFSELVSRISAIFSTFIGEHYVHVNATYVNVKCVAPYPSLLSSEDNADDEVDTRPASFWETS

For the compound `C/C(=N\O)c1ccc2nnc(Sc3ccc4ncc(N5CCC(O)CC5)cc4c3)n2n1` [Example 29, (E)-1-(3-((3-(4-Hydroxypiperidin-1-yl)quinolin-6-yl)sulfanyl)-[1,2,4]triazolo[4,3-b]pyridazin-6-yl)-ethanone oxime], the IC50 in assay [1] was 0.0007 µM; in assay [2], 0.001 µM; in assay [3] it was above 30 µM.
For the compound `C/C(=N\O)c1ccc2nnc(Cc3ccc4ncc(CN5CCOCC5)cc4c3)n2n1` [Example 15, (E)-1-(3-((3-(Morpholin-4-yl-methyl)quinolin-6-yl)methyl)-[1,2,4]triazolo[4,3-b]pyridazin-6-yl)ethanone oxime], the figures for the IC50 in assay [1], in assay [2] and in assay [3] were 0.007 µM, 0.013 µM and above 30 µM, respectively.
Take `CO/N=C(\C)c1ccc2nnc([C@@H](C)c3ccc4ncc(-c5cnn(C)c5)cc4c3)n2n1` [Example 3-(S)]: the results for the IC50 in assay [1], in assay [2] and in assay [3] were 0.005 µM, 0.001 µM and 2 µM, respectively.
`CCN(CC)Cc1cnc2ccc(Sc3nnc4ccc(/C(C)=N/O)nn34)cc2c1` [Example 32, (E)-1-(3-((3-((diethylamino)methyl)quinolin-6-yl)sulfanyl)-[1,2,4]triazolo[4,3-b]pyridazin-6-yl)ethanone oxime]: the IC50 was 0.004 µM in assay [1], 0.256 µM in assay [2] and above 30 µM in assay [3].
For the compound `C/C(=N\O)c1ccc2nnc(Cc3ccc4ncc(N5CCOCC5)cc4c3)n2n1` [Example 13, (E)-1-(3-((3-Morpholin-4-yl-quinolin-6-yl)methyl)-[1,2,4]triazolo[4,3-b]pyridazin-6-yl)ethanone oxime], the IC50 amounted to 0.002 µM in assay [1], 0.01 µM in assay [2] and 14 µM in assay [3].
In the case of `C/C(=N\O)c1ccc2nnc([C@H](C)c3c(F)cc4ncc(C(C)(C)O)cc4c3F)n2n1` [24-(R)], the results for the IC50 in assay [1], in assay [2] and in assay [3] were 0.146 µM, 0.126 µM and 6 µM, respectively.
With `C/C(=N\O)c1ccc2nnc(Sc3ccc4ncc(N5CCN(C)CC5)cc4c3)n2n1` [Example 28, (E)-1-(3-((3-(4-Methylpiperazin-1-yl)quinolin-6-yl)sulfanyl)-[1,2,4]triazolo[4,3-b]pyridazin-6-yl)-ethanone oxime], the IC50 in assay [1] is 0.005 µM; in assay [2], 0.002 µM; in assay [3] it was above 30 µM.
Consider `C/C(=N\O)c1ccc2nnc(Cc3c(F)cc4ncc(N5CCOCC5)cc4c3F)n2n1` [Example 11, (E)-1-[3-(5,7-Difluoro-3-morpholin-4-yl-quinolin-6-ylmethyl)-[1,2,4]triazolo[4,3-b]pyridazin-6-yl]-ethanone oxime], for which the IC50 in assay [1] was 0.001 µM; in assay [2], 0.006 µM; in assay [3], above 30 µM.
Regarding `C/C(=N\OCC1CC1)c1ccc2nnc([C@@H](C)c3ccc4ncc(-c5cnn(C)c5)cc4c3)n2n1` [Example 4-(S)], the IC50 in assay [1] is 0.023 µM; in assay [2] it was 0.009 µM; in assay [3], 1.2 µM.
On to `C/C(=N\OCC1CC1)c1ccc2nnc([C@H](C)c3ccc4ncc(-c5cnn(C)c5)cc4c3)n2n1` [Example 4-(R)], for which the IC50 in assay [1] amounted to 0.144 µM; in assay [2] it was 0.099 µM; in assay [3], 10 µM.
As to `C/C(=N\OCCO)c1ccc2nnc(Cc3c(F)cc4ncc(C5CCCCC5)cc4c3F)n2n1` [Example 25, (E)-1-(3-((3-Cyclohexyl-5,7-difluoroquinolin-6-yl)methyl)-[1,2,4]triazolo[4,3-b]pyridazin-6-yl)ethanone O-2-hydroxyethyl oxime], the results for the IC50 in assay [1], in assay [2] and in assay [3] were 0.016 µM, 0.012 µM and 3 µM, respectively.
The corresponding values for `C/C(=N\O)c1ccc2nnc(Sc3ccc4ncc(NC5CCOCC5)cc4c3)n2n1` [Example 30, (E)-1-(3-((3-((Tetrahydro-2H-pyran-4-yl)amino)quinolin-6-yl)sulfanyl)-[1,2,4]triazolo[4,3-b]pyridazin-6-yl)-ethanone oxime] are 0.0009 µM, 0.001 µM and 17 µM.
Take `C/C(=N\O)c1ccc2nnc(Cc3c(F)cc4ncc(C5CCCCC5)cc4c3F)n2n1` [Example 26, (E)-1-(3-((3-Cyclohexyl-5,7-difluoroquinolin-6-yl)methyl)-[1,2,4]triazolo[4,3-b]pyridazin-6-yl)-ethanone oxime]: the figures for the IC50 in assay [1], in assay [2] and in assay [3] were 0.015 µM, 0.093 µM and above 30 µM, respectively.
For the compound `C/C(=N\O)c1ccc2nnc(Cc3c(F)cc4ncc(-c5cnn(C)c5)cc4c3F)n2n1` [Example 22, (E)-1-(3-((5,7-Difluoro-3-(1-methyl-1H-pyrazol-4-yl)quinolin-6-yl)methyl)-[1,2,4]triazolo[4,3-b]pyridazin-6-yl)ethanone oxime], the IC50 turned out to be 0.001 µM in assay [1], 0.003 µM in assay [2] and 21 µM in assay [3].
As for `C/C(=N\O)c1ccc2nnc([C@@H](C)c3c(F)cc4ncc(C(C)(C)O)cc4c3F)n2n1` [24-(S)], the IC50 in assay [1] stood at 0.005 µM; in assay [2], 0.08 µM; in assay [3], 8 µM.
The matching figures for `C/C(=N\O)c1ccc2nnc(Cc3ccc4ncc(N5CCN(C)CC5)cc4c3)n2n1` [Example 14, (E)-1-(3-((3-(4-Methylpiperazin-1-yl)quinolin-6-yl)methyl)-[1,2,4]triazolo[4,3-b]pyridazin-6-yl)ethanone oxime]: 0.003 µM, 0.002 µM and 25 µM.
Take `C/C(=N\O)c1ccc2nnc([C@@H](C)c3c(F)cc4ncc(-c5cnn(C)c5)cc4c3F)n2n1` [Example 21-(S), (S,E)-1-(3-(1-(5,7-difluoro-3-(1-methyl-1H-pyrazol-4-yl)quinolin-6-yl)ethyl)-[1,2,4]triazolo[4,3-b]pyridazin-6-yl)ethanone oxime]: the IC50 in assay [1] was 0.003 µM; in assay [2], 0.007 µM; in assay [3], 4 µM.
As for `CO/N=C(\C)c1ccc2nnc([C@H](C)c3ccc4ncc(-c5cnn(C)c5)cc4c3)n2n1` [Example 3-(R)], the IC50 turned out to be 0.026 µM in assay [1], 0.027 µM in assay [2] and 11 µM in assay [3].
